What was measured:
clinical [1] = details: human, in vivo, iv
clinical [2] = details: human, in vivo, iv, Vdss
clinical [3] = details: human, in vivo, iv, CL
clinical [4] = details: human, in vivo, iv, t1/2

COc1ccc(C(=O)Nc2ccccc2CCC2CCCCN2C)cc1 (stereo unspecified) [ENCAINIDE]
MRT (clinical [1]): 2.8 h
Vd (clinical [2]): 2.2 L/kg
clearance (clinical [3]): 13 mL/min/kg
half-life (clinical [4]): 2.6 h

N/N=c1/cc2c(n[nH]1)CCN(C(=O)c1ccccc1)C2 [ENDRALAZINE]
MRT (clinical [1]): 2.7 h
Vd (clinical [2]): 2.2 L/kg
clearance (clinical [3]): 13 mL/min/kg
half-life (clinical [4]): 5.6 h

Cc1cc(-n2cccc2)c(S(C)(=O)=O)cc1C(=O)NC(=N)N [ENIPORIDE]
MRT (clinical [1]): 2.3 h
Vd (clinical [2]): 1.1 L/kg
clearance (clinical [3]): 8.2 mL/min/kg
half-life (clinical [4]): 2.2 h

CC(C)(C)NC(=O)[C@H]1CC[C@H]2[C@@H]3CC=C4C=C(C(=O)O)CC[C@]4(C)[C@H]3CC[C@]12C [EPRISTERIDE]
MRT (clinical [1]): 27 h
Vd (clinical [2]): 0.54 L/kg
clearance (clinical [3]): 0.33 mL/min/kg
half-life (clinical [4]): 27 h

CCCCc1ncc(/C=C(\Cc2cccs2)C(=O)O)n1Cc1ccc(C(=O)O)cc1 [EPROSARTAN]
MRT (clinical [1]): 1.5 h
Vd (clinical [2]): 0.17 L/kg
clearance (clinical [3]): 1.9 mL/min/kg
half-life (clinical [4]): 2.1 h

CCCCCC/C=C\CCCCCCCCCC(=O)N[C@H]1[C@H](OC[C@H]2O[C@H](OP(=O)(O)O)[C@H](NC(=O)CC(=O)CCCCCCCCCCC)[C@@H](OCCCCCCCCCC)[C@@H]2O)O[C@H](COC)[C@@H](OP(=O)(O)O)[C@@H]1OCC[C@@H](CCCCCCC)OC [ERITORAN]
MRT (clinical [1]): 62 h
Vd (clinical [2]): 0.048 L/kg
clearance (clinical [3]): 0.013 mL/min/kg
half-life (clinical [4]): 51 h

C[C@]12CC[C@@H]3c4ccc(OC(=O)N(CCCl)CCCl)cc4CC[C@H]3[C@@H]1CC[C@@H]2OP(=O)(O)O [ESTRAMUSTINE PHOSPHATE]
MRT (clinical [1]): 2.1 h
Vd (clinical [2]): 0.12 L/kg
clearance (clinical [3]): 0.94 mL/min/kg
half-life (clinical [4]): 2.4 h

C=C(CC)C(=O)c1ccc(OCC(=O)O)c(Cl)c1Cl [ETHACRYNIC ACID]
MRT (clinical [1]): 0.5 h
Vd (clinical [2]): 0.26 L/kg
clearance (clinical [3]): 8.73 mL/min/kg
half-life (clinical [4]): 0.5 h

CCNCC(O)c1cccc(O)c1 (stereo unspecified) [ETILEFRINE]
MRT (clinical [1]): 2.5 h
Vd (clinical [2]): 2.1 L/kg
clearance (clinical [3]): 14 mL/min/kg
half-life (clinical [4]): 2.2 h

CC[C@@]1(O)C(=O)OCc2c1cc1n(c2=O)Cc2c-1nc1cc(F)c(C)c3c1c2[C@@H](N)CC3 [EXATECAN]
MRT (clinical [1]): 7.6 h
Vd (clinical [2]): 0.44 L/kg
clearance (clinical [3]): 0.96 mL/min/kg
half-life (clinical [4]): 6.7 h

O=C1NCC2(CCN(CCc3ccccc3)CC2)O1 [FENSPIRIDE]
MRT (clinical [1]): 19 h
Vd (clinical [2]): 3 L/kg
clearance (clinical [3]): 2.6 mL/min/kg
half-life (clinical [4]): 14 h

OC(Cn1cncn1)(Cn1cncn1)c1ccc(F)cc1F [FLUCONAZOLE]
MRT (clinical [1]): 40 h
Vd (clinical [2]): 0.75 L/kg
clearance (clinical [3]): 0.31 mL/min/kg
half-life (clinical [4]): 30 h

Nc1nc(=O)[nH]cc1F [FLUCYTOSINE]
MRT (clinical [1]): 5.7 h
Vd (clinical [2]): 0.68 L/kg
clearance (clinical [3]): 2 mL/min/kg
half-life (clinical [4]): 4.2 h

CCOC(=O)Nc1ccc(NCc2ccc(F)cc2)nc1N [FLUPIRTINE]
MRT (clinical [1]): 11 h
Vd (clinical [2]): 1.1 L/kg
clearance (clinical [3]): 1.6 mL/min/kg
half-life (clinical [4]): 8.5 h

C[C@@H]1O[C@@H]1P(=O)(O)O [FOSFOMYCIN]
MRT (clinical [1]): 2.7 h
Vd (clinical [2]): 0.32 L/kg
clearance (clinical [3]): 2 mL/min/kg
half-life (clinical [4]): 1.9 h

O=C(O)[C@@H]1C[C@@H](C2CCCCC2)CN1C(=O)CP(=O)(O)CCCCc1ccccc1 [FOSINOPRILAT]
MRT (clinical [1]): 6.8 h
Vd (clinical [2]): 0.13 L/kg
clearance (clinical [3]): 0.32 mL/min/kg
half-life (clinical [4]): 9.4 h

C[C@@](O)(/C=C/[C@H]1CC=CC(=O)O1)[C@@H](C[C@@H](O)\C=C/C=C\C=C\CO)OP(=O)(O)O [FOSTRIECIN]
MRT (clinical [1]): 1.2 h
Vd (clinical [2]): 0.086 L/kg
clearance (clinical [3]): 1.2 mL/min/kg
half-life (clinical [4]): 1.5 h

CN[C@@H]1CCc2[nH]c3ccc(C(N)=O)cc3c2C1 [FROVATRIPTAN]
MRT (clinical [1]): 22 h
Vd (clinical [2]): 3.6 L/kg
clearance (clinical [3]): 2.5 mL/min/kg
half-life (clinical [4]): 24 h

COc1ccc2c3c1O[C@H]1C[C@@H](O)C=C[C@@]31CCN(C)C2 [GALANTAMINE]
MRT (clinical [1]): 6.8 h
Vd (clinical [2]): 2.3 L/kg
clearance (clinical [3]): 5.6 mL/min/kg
half-life (clinical [4]): 5.3 h

Nc1nc(O)c2ncn(COC(CO)CO)c2n1 [GANCICLOVIR]
MRT (clinical [1]): 3.7 h
Vd (clinical [2]): 1 L/kg
clearance (clinical [3]): 4.6 mL/min/kg
half-life (clinical [4]): 3.7 h

COc1c(N2CCNC(C)C2)c(F)cc2c(=O)c(C(=O)O)cn(C3CC3)c12 (stereo unspecified) [GATIFLOXACIN]
MRT (clinical [1]): 11 h
Vd (clinical [2]): 1.7 L/kg
clearance (clinical [3]): 2.8 mL/min/kg
half-life (clinical [4]): 10 h

C[C@H]([C@](O)(Cn1cncn1)c1ccc(F)cc1F)S(C)(=O)=O [GENACONAZOLE]
MRT (clinical [1]): 54 h
Vd (clinical [2]): 0.62 L/kg
clearance (clinical [3]): 0.19 mL/min/kg
half-life (clinical [4]): 49 h

C[C@@H]1C(=O)O[C@H]2C[C@@]34[C@H]5C[C@@H](C(C)(C)C)[C@]36[C@@H](OC(=O)[C@@H]6O)O[C@@]4(C(=O)O5)[C@]21O [GINKGOLIDE A]
MRT (clinical [1]): 4.6 h
Vd (clinical [2]): 0.62 L/kg
clearance (clinical [3]): 2.3 mL/min/kg
half-life (clinical [4]): 3.8 h

C[C@@H]1C(=O)O[C@H]2[C@H](O)[C@@]34[C@H]5C[C@@H](C(C)(C)C)[C@]36[C@@H](OC(=O)[C@@H]6O)O[C@@]4(C(=O)O5)[C@@]12O [GINKOLIDE B]
MRT (clinical [1]): 6.6 h
Vd (clinical [2]): 0.91 L/kg
clearance (clinical [3]): 2.3 mL/min/kg
half-life (clinical [4]): 5.2 h

Source: ChEMBL document CHEMBL1614632, “Trend analysis of a database of intravenous pharmacokinetic parameters in humans for 670 drug compounds” (Drug Metab Dispos, 2008)
